# Where two headings read alike, the source gives them in different places.
# Legend:
# [1] = test system: patients with metastatic colorectal cancer; experiment: Randomised phase II trial: tumour response (WHO criteria) and time-to-event efficacy; settings: for Complete response, % / Duration of response and stabilisation, median (min–max) / Overall response (CR+PR), % / Partial response, % / Progressive disease, % / Response not evaluable, % / Stable disease, % / Survival, median (min–max) / Time to progression, median (min–max) / Time to treatment failure, median (min–max): intent-to-treat
# Protocol: A total of 17 centres in Europe participated in this study: two in Denmark, one in Ireland, four in The Netherlands, five in Norway, two in Sweden and three in Russia. […] Randomisation was performed centrally by Aventis Pharma R&D, Antony Cedex, France. […] A total of 37 evaluable patients per arm had to be included.
# Pretreatment evaluation included a complete medical history and complete physical examination. Before each course, blood chemistry and haematology profiles were checked. Haematology was checked weekly. […] An external response review committee (ERRC) was established during the study to perform assessments of tumour response. […] Adverse events that were not reported according to NCI-CTC were graded as mild, moderate, severe, or life threatening.
# The primary efficacy variable was response rate; overall response was defined as complete plus partial response. The secondary efficacy variables were the duration of response and stabilisation, time to progression, time to treatment failure and the overall survival. The differences between the four treatment groups were explored with the χ^2 test. Subsequent statistical tests were performed only in the case of evidence of difference to provide the significance level of difference. The Fisher exact test was used to compare treatment groups on categorical variables. For continuous variables, if a normal distribution could be assumed, Student's t-tests were used. Otherwise, they were analysed by nonparametric methods. Exact confidence intervals were calculated using binominal distribution probability. Censored data were analysed using the Kaplan–Meier method; the log-rank test was used to compare the groups. Differences in pharmacokinetic parameters between the four treatment arms were evaluated using one-way analysis of variance (ANOVA) combined with least significant difference (LSD) method (P was set at 0.05) and the Student's t-test was used to calculate the P-value of significant differences. The Pearson correlation coefficient (r) was calculated between dose and pharmacokinetic parameters. Statistical analyses were performed with SPSS (version 10.0.7 for Windows, SPSS Inc.). All tests for significance were two-tailed.
# [2] = 140 mg m^−2: 10 mg m^−2 irinotecan as 14-day prolonged infusions, N=6, mean±s.d.; ref 16 (Herben et al, 1999); cited from earlier work
# [3] = test system: patients with colorectal cancer; settings: same schedule as arm A (350 mg m^−2 q3 weeks), cited from earlier work
# [4] = Population pharmacokinetics, plasma total irinotecan and SN-38 (HPLC, NONMEM), first course; assay type: in vivo; settings: human, iv
# Protocol: A pharmacokinetic evaluation was performed using a population approach; 88 patients from arms A, B and C were evaluated during the first course of treatment. The sampling strategy consisted of three different sampling schedules (with three sampling times in each): schedule 1: 30 min before the end of the infusion, 5 min and 3–4 h post-infusion; schedule 2: 30 min before the end of the infusion, 10 min and 5–7 h post-infusion; schedule 3: 5 min before the end of the infusion, 30 min and 20–24 h post-infusion. In a few cases, an additional sample was taken in schedules 1 and 2 after 24 h. All patients at one site were sampled according to the same schedule. The aim of the sampling strategy was to define the full kinetic profile over the whole population, by drawing a small number of samples at different times from a large number of patients.
# Blood samples (5 ml) were collected in heparinised tubes and immediately immersed in ice-water. Plasma was obtained by centrifugation of the samples (5 min; 3000 r.p.m., 4°C) and stored at −20°C or lower until analysis. […] Pharmacokinetic parameters were determined by the Bayesian approach with the concentration–time data from each patient, and a population model previously defined.
# Otherwise, they were analysed by nonparametric methods. […] All tests for significance were two-tailed.
# [5] = arm A (350 mg m^−2 90-min i.v. q3 weeks)
# [6] = arm B (125 mg m^−2 90-min i.v. weekly × 4 q6 weeks)
# [7] = arm C (250 mg m^−2 90-min i.v. q2 weeks)
# [8] = arm D (10 mg m^−2 day^−1 14-day continuous infusion q3 weeks)
# [9] = arm A, 350 mg m^−2 90-min i.v. infusion, N=30, mean±s.d.
# [10] = arm B, 125 mg m^−2 90-min i.v. infusion, N=28, mean±s.d.
# [11] = arm C, 250 mg m^−2 90-min i.v. infusion, N=30, mean±s.d.
smiles,measurement,setting,value
CCc1c2c(nc3ccc(OC(=O)N4CCC(N5CCCCC5)CC4)cc13)-c1cc3c(c(=O)n1C2)COC(=O)[C@]3(O)CC [irinotecan],Patients who discontinued treatment because of progressive disease,[1]; [5],81%
same,"Complete response, %",[1]; [5],0%
same,"Duration of response and stabilisation, median (min–max)",[1]; [5],5.9 (0.8–12.7) Months
same,"Overall response (CR+PR), %",[1]; [5],7%
same,"Partial response, %",[1]; [5],7%
same,"Progressive disease, %",[1]; [5],46%
same,"Response not evaluable, %",[1]; [5],2%
same,"Stable disease, %",[1]; [5],44%
same,"Survival, median (min–max)",[1]; [5],9.4 (1.0–15.3) Months
same,"Time to progression, median (min–max)",[1]; [5],2.7 (1.0–12.8) Months
same,"Time to treatment failure, median (min–max)",[1]; [5],2.7 (1.0–12.8) Months
same,Patients who discontinued treatment because of progressive disease,[1]; [6],57%
same,"Complete response, %",[1]; [6],0%
same,"Duration of response and stabilisation, median (min–max)",[1]; [6],3.9 (1.0–13.0) Months
same,"Overall response (CR+PR), %",[1]; [6],5%
same,"Partial response, %",[1]; [6],5%
same,"Progressive disease, %",[1]; [6],19%
same,"Response not evaluable, %",[1]; [6],14%
same,"Stable disease, %",[1]; [6],62%
same,"Survival, median (min–max)",[1]; [6],7.1 (0.6–13.5) Months
same,"Time to treatment failure, median (min–max)",[1]; [6],2.3 (0.6–8.3) Months
same,Patients who discontinued treatment because of progressive disease,[1]; [7],61%
same,"Complete response, %",[1]; [7],0%
same,"Duration of response and stabilisation, median (min–max)",[1]; [7],5.3 (1.3–8.9) Months
same,"Overall response (CR+PR), %",[1]; [7],11%
same,"Partial response, %",[1]; [7],11%
same,"Progressive disease, %",[1]; [7],33%
same,"Response not evaluable, %",[1]; [7],2%
same,"Stable disease, %",[1]; [7],54%
same,"Survival, median (min–max)",[1]; [7],8.6 (0.7–16.7) Months
same,"Time to progression, median (min–max)",[1]; [7],3.8 (0.0–8.9) Months
same,"Time to treatment failure, median (min–max)",[1]; [7],3.2 (0.4–7.1) Months
same,Patients who discontinued treatment because of progressive disease,[1]; [8],55%
same,"Complete response, %",[1]; [8],2%
same,"Duration of response and stabilisation, median (min–max)",[1]; [8],3.4 (1.3–6.9) Months
same,"Overall response (CR+PR), %",[1]; [8],5%
same,"Partial response, %",[1]; [8],2%
same,"Progressive disease, %",[1]; [8],34%
same,"Response not evaluable, %",[1]; [8],18%
same,"Stable disease, %",[1]; [8],43%
same,"Survival, median (min–max)",[1]; [8],6.4 (1.1–15.1) Months
same,"Time to progression, median (min–max)",[1]; [8],2.8 (0.0–7.0) Months
same,"Time to treatment failure, median (min–max)",[1]; [8],1.7 (0.5–7.1) Months
same,Median survival,[1]; range across the four arms A–D,6.4–9.4 months
same,Overall response rates,[1]; range across the four arms A–D,5–11%
same,Time to progression,[1]; range across the four arms A–D,2.7–3.8 months
same,Time to treatment failure,[1]; range across the four arms A–D,1.7–3.2 months
same,Irinotecan AUC,[2],12.8 ± 3.9 µM·h
same,Median survival,[3]; ref Cunningham et al (1998),9.2 months
same,Median survival,[3]; ref Rougier et al (1997),10.8 months
same,AUC,[4]; [9],47.8 ± 19 µM·h
same,Cmax,[4]; [9],7.91 ± 1.1 µM
same,AUC,[4]; [10],14.6 ± 6.9 µM·h
same,Cmax,[4]; [10],2.62 ± 0.39 µM
same,AUC,[4]; [11],32.7 ± 13.5 µM·h
same,Cmax,[4]; [11],5.52 ± 0.9 µM
